Experimental data from US20250177375A1, “AZAPHILONE COMPOUND AND USE THEREOF IN PREPARATION OF ANTI-TUMOR DRUGS” (OCEAN UNIVERSITY OF CHINA, priority 2022, published 2025).
“Also recorded” adds a separate entry of the source.

Legend:
NK92 cells [1] = test: Killing function of NK92 cells against tumor cells after compound treatment (LDH assay, initial screening); type: cell-based, Human; conditions: for cytotoxicity at 0.1 µM: Homo sapiens, NK92 treated at 100 nM for 72 h, effector-to-target ratio 5:1, 5 h co-culture, LDH release, read-out: tumor killing rate by NK activation
Description: (§1) Seed the NK92 cells obtained from 1.3 into a 24-well cell culture plate (referred to as a 24-well plate) at a concentration of 3×10^5 cells/well, with 4 wells designated as blank or drug-treated. For the drug-treated wells, set the initial screening concentration to 100 nM. Add 900 μL of cell suspension and 100 μL of drug to each well. For the blank wells, add 100 μL of double-distilled water. Incubate the 24-well plate in a 37° C., 5% CO2 incubator for 72 h. Replace the fresh culture medium and add drugs every 24 h during the incubation.
(§2) Seed various types of tumor cells in logarithmic phase into a 96-well cell culture plate at a concentration of 5×10^3 cells/well. Set up 3 replicate wells for each concentration and include wells for target cell spontaneous release and target cell maximum release. Incubate the 96-well plate overnight in a 37° C., 5% CO2 incubator.
Centrifuge and count the NK92 cells from 2.1 in the 24-well plate cultured for 72 h. Add the cells to the overnight-cultured tumor target cells according to the effector-to-target ratio of 5:1 (excluding wells for target cell spontaneous release and maximum release). Also, set up 3 effector cell control wells. Add 200 μL of cell suspension to each well, then centrifuge at 300 g, 25° C. for 5 min to allow sufficient contact between effector cells and target cells. Continue to place the 96 well plate in a 37° C., 5% CO2 incubator and co-cultivate the NK92 and target cells for 5 h.
Lactate dehydrogenase (LDH) assay kit (BioGend Biotech Co., Ltd.) is used to detect the killing effect of effector cells on target cells. Add LDH release reagent to the wells with target cell maximum release and incubate for 1 h. After 1 h, centrifuge at 500 g, 25° C. for 5 min. Transfer 120 μL of supernatant from each well to a new 96-well plate, add the prepared LDH detection solution (60 μL/well: 20 μL lactate solution, 20 μL 1×INT working solution, and 20 μL enzyme solution) in the dark, and mix well by pipetting. Incubate at room temperature in the dark for 20 min (wrapped in aluminum foil and shook slowly on a shaker). Measure the absorbance at 490 nm using a microplate reader and the measured absorbance value of each well should subtract the absorbance value of the background blank control well.
Cytotoxicity (%)=[(Experimental group−Effector cell control−Target cell spontaneous release)/(Target cell maximum release−Target cell spontaneous release)]×100.

cancer cell lines = test: In vitro assays of cancer cell lines; type: cell-based; conditions: direct activity on cancer cell lines; read-out: IC50 in all in vitro assays of cancer cell lines
From the text: In prior research (Sun C.; Ge X.; Mudassir S.; Zhou L.; Yu G.; Che Q.; Zhang G.; Peng J.; Gu Q.; Zhu T. New glutamine-containing azaphilone alkaloids from deep-sea-derived fungus Chaetomium globosum HDN151398. Mar. Drugs 2019, 17, 253.), the inventors discovered compound 1778.

NK92 cells [2] = test: NK cell proliferation rate using CCK-8; type: cell-based, Human; conditions: 1-10000 nM, 72 h, FIG. 1
Description: 3. Determination of NK Cell Proliferation Rate Using CCK-8 after Treatment with 1778 3.1 Preparation of Compound Concentration Gradient: Dilute the azaphilone compound 1778 with double-distilled water to set up 5 concentrations, with final concentrations of 1, 10, 100, 1000, and 10000 nM in the wells.
Seed NK92 cells obtained from 1.3 into 96-well cell culture plate (referred to as a 96-well plate) at a concentration of 1×10^4 cells/well, […]. Set up 5 replicates for each compound concentration (also need to set a blank group, that is, double-distilled water replaces the compound), and seal wells with PBS. Incubate in a 37° C., 5% CO2 incubator for 72 h.
Remove the cell culture plates from 2.2 and add 10 μL of CCK-8 solution (Shanghai Yisheng Biotechnology Co., Ltd.) to each well, avoiding bubbles. After adding CCK-8 solution, incubate the 96-well cell culture plates in a 37° C., 5% CO2 incubator for 2.5 h. Measure the absorbance at 450 nm using a microplate reader to compare the proliferation level of NK92 cells.

NK92 cells [3] = test: Killing ability of NK cell against tumor cells after treatment with 1778 (1, 10, 100 nM); type: cell-based, Human
Description: as §1, §2
Centrifuge and count the NK92 cells from 2.1 in the 24-well plate cultured for 72 h. […]
Lactate dehydrogenase (LDH) assay kit (BioGend Biotech Co., Ltd.) is used to detect the killing effect of effector cells on target cells. […] Measure the absorbance at 490 nm using a microplate reader and the measured absorbance value of each well should subtract the absorbance value of the background blank control well. […]

NK92 cells [4] = test: NK cell activation factor release (ELISA) after co-culture with NCI-H1975; type: cell-based, Human
Description: NK cells release granzyme B and perforin to kill tumor cells upon activation, while release IFN-γ to regulate the mechanism of antitumor immunity.
5.1 Pre-treatment of NK92 Cells with Compound 1778: Seed NK92 cells into a 24-well plate and treat with drug as described in section 3.1.
Seed logarithmic phase NCI-H1975 cells into 96-well plates at a concentration of 1×10^4 cells/well. Set up 3 replicates for each concentration and control wells for target cell. Incubate the 96-well plate overnight in a 37° C., 5% CO2 incubator.
According to the effector-to-target ratio of 5:1, add NK92 cells to NCI-H1975, co-cultivate for over 6 h and centrifuge (500 g, 25° C.). Then collect supernatant (use within 24 h). Use ELISA kits (BD Biosciences, USA) to detect the release of 3 activating cytokines granzyme B (FIG. 3), perforin (FIG. 4), and IFN-γ (FIG. 5).

[5] = tested on: primary NK cells isolated from the peripheral blood of healthy individuals; test: Primary NK cell activation (CD107 flow cytometry), peripheral blood PBMCs from healthy donors; type: cell-based, Human; conditions: 1, 10, 100 nM, 72 h, K562 targets 5:1, FIG. 6
Description: (§3) CD107 is expressed on the surface of NK cells released by the activator. Therefore, the activation of NK cells can be reflected by detecting the content of CD107 expressed by cell membrane.
(§4) 6.1 Collect peripheral blood from normal individuals and pleural effusion from lung cancer patients using sterile anticoagulant tubes, and dilute with an equal volume of sterile PBS. Take a 50 ml centrifuge tube and absorb a certain volume of lymphocyte separation solution (Solarbio Science & Technology Co., Ltd.). Slowly add diluted peripheral blood and pleural effusion in a volume ratio of 4:3. Centrifuge at 400 g at room temperature for 30 min (Adjust the lifting and deceleration speed of the centrifuge to rise 1 or down 1). 6.2 Carefully absorb the white lymphocyte layer in the middle and place it in PBS (at least three times the volume of the absorbed cells). Overturn and blending, and wash the cells. Centrifuge at 100 g at room temperature for 10 min. Discard the supernatant, resuspend the cell pellet in 10 ml PBS, and gently mix. Wash off residual Ficoll, then centrifuge again at 100 g for 10 min. Discard the supernatant, resuspend the cell pellet in RPMI-1640 complete medium, and continue culture for 3 days with RPMI-1640 complete medium containing 10 ng/ml IL-2 to stimulate primary NK cell expansion and activation. […] The detection results were analyzed using FlowJo software.

[6] = tested on: primary NK cells from the pleural fluid of lung cancer patients; test: Primary NK cell activation (CD107 flow cytometry), pleural effusion from lung cancer patients; type: cell-based, Human; conditions: 1, 10, 100 nM, 72 h, K562 targets 5:1, FIG. 7
Description: as §3, §4

B16F10 melanoma cells = test: Melanoma lung metastasis model in C57BL/6 mice; type: in vivo; conditions: 25 mg/kg daily intraperitoneal, 14 days; B16F10 via tail vein; FIG. 8
Description: To investigate whether 1778 works in vivo, we used a melanoma lung metastasis model.
Mouse B16F10 melanoma cells were intravenously injected into mice, and then 1778 was administered for efficacy evaluation. B116F10 cells are highly metastatic and lack MHC class-I expression, and it has been previously reported that the metastasis of B116F10 cells in vivo is mainly controlled by NK cells.
7.1 Inject 200,000 B116F10 cells via the tail vein into each C57BL/6J mouse. 7.2 A daily intraperitoneal injection of 1778 at a dose of 25 mg/kg (diluted with PBS solution to a final volume of 200 μL). The control group was injected intraperitoneally with an equivalent volume of PBS (with the same concentration of solvent DMSO). Weigh the mice every other day to monitor the impact on body weight. After 14 days of drug administration, euthanize the mice, collect lung tissue, and fix it in tissue fixative. Count and statistically analyze the number of melanoma colonies in the lungs.

SMILES	cytotoxicity at 0.1 µM (NK92 cells [1])	other results
C/C=C(\C)C(=O)C1=C2C3=CN([C@@H](CCC(=O)OC)C(=O)OC)C(/C=C/[C@@H](C)CC)=CC3=C(Cl)C(=O)[C@@]2(C)OC1=O [Compound 1779]	22%	
CC[C@H](C)/C=C(C)/C=C/C1=CC2=C(Cl)C(=O)[C@](C)(OC(C)=O)C(=O)C2=CN1[C@H](C(=O)O)[C@@H](C)O [Compound 2309]	28.3%	
CC[C@H](C)/C=C(C)/C=C/C1=CC2=C(Cl)C(=O)[C@](C)(OC(C)=O)C(=O)C2=CN1[C@@H](C)C(=O)O [Compound 1998]	78.4%	
C/C=C(\C)C(=O)C1=C2C3=CN([C@@H](Cc4c[nH]c5ccccc45)C(=O)O)C(/C=C/[C@@H](C)CC)=CC3=C(Cl)C(=O)[C@@]2(C)OC1=O [Compound 2318]	35.9%	
CC[C@H](C)/C=C(C)/C=C/C1=CC2=C(Cl)C(=O)[C@](C)(OC(C)=O)C(=O)C2=CN1[C@@H](CO)C(=O)O [Compound 1999]	58.3%	
CC[C@H](C)/C=C(C)/C=C/C1=CC2=C(Cl)C(=O)[C@](C)(OC(C)=O)C(=O)C2=CN1CC(=O)O [Compound 1996]	6.12%	
C/C=C(\C)C(=O)C1=C2C3=CN([C@@H](CCC(=O)O)C(=O)O)C(/C=C/[C@@H](C)CC)=CC3=C(Cl)C(=O)[C@@]2(C)OC1=O [Compound 1778]	75.2%	activation effect on NK92 cells (NK92 cells [1]; summary in words of the 100 nM screening table): very strong activation effect; IC50 (cancer cell lines): > 50 µM; proliferation of NK92 cells (NK92 cells [2]): weak proliferative effect; also recorded: promotes the proliferation; ability of NK92 cells to kill various types of tumor cells (NK92 cells [3]; 1, 10, 100 nM, FIG. 2): significantly enhances; also recorded: significantly promotes the killing activity; concentration at which NK cells are activated (NK92 cells [3]; concentrations as low as): 1 to 100 nM; release of granzyme B by NK-92 cells (NK92 cells [4]; co-culture with NCI-H1975, 5:1, FIG. 3): promotes the releases; also recorded: significantly promotes the release; release of perforin by NK-92 cells (NK92 cells [4]; co-culture with NCI-H1975, 5:1, FIG. 4): promotes the releases; also recorded: significantly promotes the release; release of IFN-γ by NK-92 cells (NK92 cells [4]; co-culture with NCI-H1975, 5:1, FIG. 5): significantly promotes the release; also recorded: promotes the releases; expression of CD107 (degranulation) in primary NK cells [5]: significantly promotes the degranulation; also recorded: significant increase; expression of CD107 (degranulation) in primary NK cells [6]: significantly promotes the degranulation; also recorded: significant increase; number of lung metastases (melanoma colonies in the lungs) (B16F10 melanoma cells): significant inhibitory effect; also recorded: significantly reduced
C/C=C(\C)C(=O)C1=C2C3=CN([C@@H](Cc4c[nH]cn4)C(=O)O)C(/C=C/[C@@H](C)CC)=CC3=C(Cl)C(=O)[C@@]2(C)OC1=O [Compound 2320]	22.2%	
CC[C@H](C)/C=C(C)/C=C/C1=CC2=C(Cl)C(=O)[C@](C)(OC(C)=O)C(=O)C2=CN1[C@@H](CC(C)C)C(=O)O [Compound 2001]	18.7%	
CC[C@H](C)/C=C(C)/C=C/C1=CC2=C(Cl)C(=O)[C@](C)(OC(C)=O)C(=O)C2=CN1[C@@H](Cc1ccccc1)C(=O)O [Compound 2000]	65.2%	
CC[C@H](C)/C=C(C)/C=C/C1=CC2=C(Cl)C(=O)[C@](C)(OC(C)=O)C(=O)C2=CN1CCO [Compound 2308]	8.11%	
CC[C@H](C)/C=C(C)/C=C/C1=CC2=C(Cl)C(=O)[C@](C)(OC(C)=O)C(=O)C2=CO1 [Compound 2307]	38.3%	
CC[C@H](C)/C=C(C)/C=C/C1=CC2=C(Cl)C(=O)[C@](C)(OC(C)=O)C(=O)C2=CN1[C@@H](Cc1ccc(O)cc1)C(=O)O [Compound 1997]	29.5%	
